Laboratory results taken from patent publication US9187477B2, “Azabenzimidazole derivatives” (Boehringer Ingelheim International GmbH, priority 2013, dated 2015).

Legend:
[1] = Metabolic stability: metabolic degradation with pooled human liver microsomes; type: in vitro ADME; conditions: for c (control) (metabolic stability), remaining test compound after NADPH independent incubation: incubation without NADPH, after 2 hours, human liver microsomes; for t1/2 INVITRO: pooled human liver microsomes 1 mg/ml, 37° C., test compound 1 μM, NADPH 1 mM
Method: The metabolic degradation of the test compound is assayed at 37° C. with pooled human liver microsomes. The final incubation volume of 100 μl per time point contains TRIS buffer pH 7.6 at room temperature (0.1 M), magnesium chloride (5 mM), microsomal protein (1 mg/ml) and the test compound at a final concentration of 1 μM.
Following a short preincubation period at 37° C., the reactions were initiated by addition of beta-nicotinamide adenine dinucleotide phosphate, reduced form (NADPH, 1 mM) and terminated by transferring an aliquot into solvent after different time points.
Additionally, the NADPH-independent degradation was monitored in incubations without NADPH, terminated at 2 hour time point. The [%] remaining test compound after NADPH independent incubation is reflected by the parameter c (control) (metabolic stability). A c (control) (metabolic stability) value around 100% excludes cofactor independent activities (e.g. from esterases).
The quenched incubations are pelleted by centrifugation (10000 g, 5 min).
An aliquot of the supernatant is assayed by LC-MS/MS for the amount of parent compound. The half-life (t1/2 INVITRO) is determined by the slope of the semilogarithmic plot of the concentration-time profile.

[2] = target: AMPK complex 1 (containing alpha1beta1gamma1) (Homo sapiens (Human), UniProt Q13131+Q9Y478); test: in vitro AMPK activation assay (ADP-Glo Kinase Assay); type: biochemical; conditions: AMPK alpha1beta1gamma1, ATP 30 μM, peptide 1 μM, 60 min, room temperature
Chain of AMPK complex 1 (containing alpha1beta1gamma1) (Q13131 whole entry, the tested form may be a part): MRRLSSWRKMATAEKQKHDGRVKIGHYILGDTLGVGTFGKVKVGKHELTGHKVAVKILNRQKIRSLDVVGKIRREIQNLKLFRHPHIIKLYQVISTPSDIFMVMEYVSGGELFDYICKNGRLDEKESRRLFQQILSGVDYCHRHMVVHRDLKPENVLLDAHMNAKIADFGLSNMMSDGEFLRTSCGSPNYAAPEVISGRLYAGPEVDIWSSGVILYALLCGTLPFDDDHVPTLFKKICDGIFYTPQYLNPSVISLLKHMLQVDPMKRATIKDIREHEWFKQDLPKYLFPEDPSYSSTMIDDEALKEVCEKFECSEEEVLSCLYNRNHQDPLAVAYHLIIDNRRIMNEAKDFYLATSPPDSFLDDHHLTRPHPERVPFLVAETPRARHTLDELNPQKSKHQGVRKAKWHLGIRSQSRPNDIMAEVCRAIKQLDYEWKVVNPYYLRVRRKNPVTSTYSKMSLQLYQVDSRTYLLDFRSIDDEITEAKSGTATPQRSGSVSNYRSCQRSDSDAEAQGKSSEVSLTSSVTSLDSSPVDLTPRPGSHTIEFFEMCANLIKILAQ
Chain of AMPK complex 1 (containing alpha1beta1gamma1) (Q9Y478 whole entry, the tested form may be a part): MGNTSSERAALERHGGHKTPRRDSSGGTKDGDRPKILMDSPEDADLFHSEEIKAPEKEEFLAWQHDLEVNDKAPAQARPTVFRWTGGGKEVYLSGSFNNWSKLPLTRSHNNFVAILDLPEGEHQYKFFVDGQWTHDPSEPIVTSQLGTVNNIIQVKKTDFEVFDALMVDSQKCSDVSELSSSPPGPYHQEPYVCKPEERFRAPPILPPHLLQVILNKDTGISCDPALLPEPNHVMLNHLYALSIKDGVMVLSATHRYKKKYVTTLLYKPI
Chain of AMPK complex 1 (containing alpha1beta1gamma1) (P54619 whole entry partner, the tested form may be a part): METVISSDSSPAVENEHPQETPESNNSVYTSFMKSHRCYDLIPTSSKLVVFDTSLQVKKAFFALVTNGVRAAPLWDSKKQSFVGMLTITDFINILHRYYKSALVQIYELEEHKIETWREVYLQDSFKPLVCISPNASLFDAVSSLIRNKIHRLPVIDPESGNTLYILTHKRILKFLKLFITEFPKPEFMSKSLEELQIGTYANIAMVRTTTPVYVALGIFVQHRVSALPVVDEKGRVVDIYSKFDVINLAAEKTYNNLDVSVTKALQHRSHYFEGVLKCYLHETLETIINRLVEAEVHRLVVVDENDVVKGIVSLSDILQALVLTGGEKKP
Excerpt: Activated AMPK complex 1 (containing alpha1beta1gamma1) was obtained from baculovirus expression system. The gene encoding AMPK alpha1 was cloned into the pACG2T vector (BD Biosciences) to obtain a N-terminal Glutathion S transferase (GST)-fusion protein. The genes encoding AMPK beta1 and gamma1 were cloned into the p2Bac dual multiple cloning site vector (Invitrogen) with beta1 under the control of the p10 promoter and gamma1 under the control of the PH promoter. The transfer vectors containing AMPK were co-transfected individually with AcPNV BacMagic-3 DNA (EMD Millipore) in Sf9 cells and the recombinant baculoviruses were harvested after 5 days, followed by 3 rounds of amplification of the virus stock in Sf9 cells. AMPK (alpha1beta1gamma1) was expressed in High Five 5 cells by co-infection of recombinant alpha1 virus and recombinant beta1/gamma1 virus for 72 h at 27° C. Cells were harvested by centrifugation and lysed by 3 freeze/thaw cycles in PBS with 10% glycerol and protease inhibitor cocktail (Roche). After centrifugation AMPK a1b1g1 in the supernatant was captured by immobilized glutathione (GE Healthcare), impurities were washed away with PBS and AMPK alpha1beta1gamma1 was eluted with PBS containing 20 mM reduced gluthathione. The protein buffer was then exchanged to PBS with 10% glycerol and protein concentration was determined by UV absorbance.
The white 384-well Optiplates (cat. no. 6007299) were purchased from PerkinElmer. The V9101 ADP-Glo Kinase Assay and ultra pure ATP (V915A) was purchased from Promega. The substrate for AMPK (NH2-HMRSAMSGLHLVKRR_CONH2) was purchased from Upstate (12-355).
Compounds were tested in either serial dilutions or single dose concentrations. The serial compound dilutions were prepared in 100% DMSO automatically. The final DMSO concentration in the assay was 0.1%.
The Compound Stock Solutions were 10 mM in 100% DMSO. The compounds were solubilised at room temperature.
In the 384-well plates 1.25 ul of test compound in assay buffer was mixed with 1.25 ul of AMPK and 1.25 μl of the peptide (final concentration of 1 μM) and 1.25 μl of ATP (final concentration of 30 μM), both dissolved in assay buffer. This step was followed by an incubation time of 60 min. Then 5 μl of ADP Glo Reagent was added. This was followed by 40 min of incubation. Then 10 μl of Kinase Detection Reagent was admixed. The plates were sealed and after an incubation period of 30 min, the luminescence signal was measured in an Envision reader. All incubation steps were accomplished at room temperature.
Each assay microtiter plate contained wells with vehicle controls instead of compound (0.1% DMSO in water) as reference for the low signal (100% CTL, low signal), and wells with serial dilutions of AMP (final 30 μM) as reference for high signals.
The luminescence signal generated was proportional to the ADP concentration produced and was correlated with AMPK activity. The analysis of the data was performed by the calculation of the percentage of ATP consumption of AMPK in the presence of the test compound compared to the consumption of ATP in the presence of AMPK without compound. (RLU(sample)/RLU(low control))*100[RLU=relative luminescence units]
An activator of the AMPK enzyme gave values above 100% CTL.
EC50 values based on dose response curves are calculated with the XIFIT software using the 4 Parameter Logistic Model or Sigmoidal Dose-Response Model.

Compound	c (control) (metabolic stability), remaining test compound after NADPH independent incubation [1]	t1/2 INVITRO [1]	EC50 [2]
CCNC(=O)O[C@H]1CC[C@@H](c2ccc(-c3nc4[nH]c(O[C@@H]5CO[C@H]6[C@@H]5OC[C@H]6O)nc4cc3Cl)cc2)CC1 [Example 10, (cis)-4-(4-(6-Chloro-2-((3R,3aR,6R,6aR)-6-hydroxyhexahydrofuro[3,2-b]furan-3-yloxy)-3H-imidazo[4,5-b]pyridin-5-yl)phenyl)cyclohexyl ethylcarbamate]	105%	>2.17 h	0.026 µM
CC(C)NC(=O)O[C@H]1CC[C@@H](c2ccc(-c3nc4[nH]c(O[C@@H]5CO[C@H]6[C@@H]5OC[C@H]6O)nc4cc3Cl)cc2)CC1 [Example 11, (cis)-4-(4-(6-Chloro-2-((3R,3aR,6R,6aR)-6-hydroxyhexahydrofuro[3,2-b]furan-3-yloxy)-3H-imidazo[4,5-b]pyridin-5-yl)phenyl)cyclohexyl isopropylcarbamate]	106%	1.83 h	0.035 µM
